Data reported in article PMC12736951, “Design, Synthesis, and Biological Evaluation of 6″-Modified Apramycin Derivatives to Overcome Aminoglycoside Resistance” (Pharmaceutics, 2025).

Legend:
P. aeruginosa ATCC 27853 = assay: MIC, broth microdilution; type: cell-based; settings: Pseudomonas aeruginosa, ATCC27853, Table 1
Excerpt: (§1) The microbial strains used in this study were obtained from the collection of the Gause Institute of New Antibiotics. The control strains included in the analysis were S. aureus ATCC 29213, E. coli ATCC 25922, P. aeruginosa ATCC 27853, M. smegmatis ATCC 607. Clinical isolates E. coli MAR17-1350, K. pneumoniae APEX-5, K. pneumoniae MAR14-3395, and K. pneumoniae MAR18-1752 with multidrug resistance, including resistance to aminoglycosides were kindly provided by the Research Institute of Antimicrobial Chemotherapy (RIAC) of the Smolensk State Medical University, Smolensk. The microbial cultures were stored at −75 °C in trypticase soy broth (Becton, Dickinson, France) containing 10–15% glycerol. Storage was carried out in accordance with CLSI guidelines. Prior to experimentation, the bacterial strains were revived from cryopreservation by inoculating them onto trypticase soy agar (Becton, Dickinson, France) and incubating at (36 ± 1) °C for 16–24 h. Individual morphologically homogeneous colonies were then suspended in sterile physiological saline, and the turbidity of the suspension was adjusted to 0.5 McFarland units using a DEN-1 spectrophotometer (Biosan, Riga, Latvia), which corresponds to a concentration of 1.5 × 10^8 CFU/mL.
(§2) The samples were dissolved in sterile distilled water, depending on the physicochemical properties of the compounds under investigation, to a concentration of 10,000 µg/mL. Working solutions were then prepared by serial dilution, resulting in concentrations ranging from 64 µg/mL to 0.125 µg/mL.
(§3) Activity was evaluated by determining the minimum inhibitory concentration (MIC) values using the microdilution method in Mueller–Hinton Broth (Beckton and Dickinson, Le Pont-de-Claix, France), in accordance with the standard procedure for assessing the antimicrobial susceptibility of microorganisms.
(§4) The analysis was conducted in 96-well microtiter plates (Medpolymer, Saint Petersburg, Russia). The bacterial inoculum was introduced within 15 min of preparation. MIC values were determined after incubation for 15–18 h at (36 ± 1) °C. Microbial growth in the presence of the tested compounds was compared to the growth control (without exposure to the test samples). The MIC was defined as the lowest concentration at which visible microbial growth was inhibited.
(§5) To ensure the accuracy of the results, the control antibiotics kanamycin A, gentamycin, and tobramycin (Abcr GmbH, Karlsruhe, Germany) were included, along with standard reference strains: E. coli ATCC 25922. The MIC values for kanamycin A were determined as follows: E. coli ATCC 25922—1–4 µg/mL [22]. For gentamycin, the MIC values were E. coli ATCC 25922–0.25–1 µg/mL [23]. For tobramycin, the MIC values were E. coli ATCC 25922–0.25–1 µg/mL [23]. The MIC values of the reference strains were required to fall within the acceptable ranges specified in [24], provided that standard assay conditions were maintained.

S. aureus ATCC 29213 = assay: MIC, broth microdilution; type: cell-based; settings: Staphylococcus aureus, ATCC29213, Table 1
Excerpt: as §1, §2, §3, §4, §5

E. coli ATCC 25922 = assay: MIC, broth microdilution; type: cell-based, Escherichia coli; settings: Escherichia coli, ATCC25922, Table 1, read-out: MIC
Excerpt: as §1, §2, §3, §4, §5

M. smegmatis ATCC 607 = assay: MIC, broth microdilution; type: cell-based, Mycobacterium smegmatis; settings: Mycolicibacterium smegmatis, ATCC607, Table 1
Excerpt: as §1, §2, §3, §4, §5

E. coli JW5503 KanR = assay: MIC against transformant carrying APH(3′)-II; type: cell-based; settings: Escherichia coli, JW5503KANR
Method: (§6) The determination of the MIC values was performed on five strains from the working collection of MSU. E. coli JW5503 [25], which lacked a kanamycin resistance cassette that had been removed as per the method outlined in [26], and a strain derived from this strain through in vitro selection with kanamycin. […] Strains containing AG-modifying enzymes were obtained through the transformation of E. coli JW5503 with plasmids that carried cassettes of resistance, namely pCRISPomyces-2–AAC(3)-IV (Addgene #61737), pdualrep2–APH(3′)-II [27] and pt67–ANT(3″). The MIC determination was performed as described for JW5503 in [19].

E. coli JW5503 SmR = assay: MIC against transformant carrying ANT(3″); type: cell-based; settings: Escherichia coli, JW5503SMR
Method: as §6

E. coli JW5503 ApmR = assay: MIC against transformant carrying AAC(3)-IV; type: cell-based; settings: Escherichia coli, JW5503APMR
Method: as §6

[1] = system: E. coli S30 Extract System, firefly luciferase synthesis; assay: Cell-free translation inhibition assay; type: biochemical; settings: for inhibition of protein synthesis in vitro (firefly luciferase): 0.4 μM, E. coli S30 extract; for inhibitory effect on translation relative to apramycin (1): equivalent concentrations (0.4 μM)
Method: The inhibitory effects of the compounds under investigation on in vitro firefly luciferase synthesis were evaluated using the E. coli S30 Extract System for Linear Templates (Promega, Madison, WI, USA), as previously described. The working concentration for all tested compounds in the in vitro translation reaction was 0.4 μM. As all compounds were diluted in water, it was used as the negative control.

[2] = system: E. coli JW5503 with pJC27 β-galactosidase codon 537 reporter; assay: Translation accuracy using β-galactosidase reporters; type: cell-based; settings: 0.1 μL of 50 mg/mL, 37 °C, 18 h, codon 537 GAC/GGG reporters
Method: To evaluate translation accuracy in the presence of antibiotics, E. coli JW5503 (kanamycin resistance cassette removed as per) was transformed with pJC27 plasmids. […] The synthesis of active β-galactosidase depends on translation errors occurring (when codons GAC and GGG are read as GAA). Petri dishes (9 cm) containing 20 mL of solid LB agar (1.5%), supplemented with chloramphenicol (11.3 μg/mL) and X-Gal (80 μg/mL), were prepared. A secondary soft-agar layer comprising 3.5 mL of LB agar (0.6%) supplemented with 11.3 μg/mL chloramphenicol and 0.5 mL of liquid culture (A600~1.0) was added and allowed to solidify. Antibiotics were applied to the plates in 0.1 μL aliquots at a concentration of 50 mg/mL for tobramycin, streptomycin, kanamycin, and apramycin, and for 5a, 5b, 8a, and 8b. The plates were then incubated at 37 °C for 18 h. […] The results were documented using a Samsung Galaxy Tab A71 camera.

SMILES	MIC (P. aeruginosa ATCC 27853)	MIC (S. aureus ATCC 29213)	MIC (E. coli ATCC 25922)	MIC (M. smegmatis ATCC 607)	MIC (E. coli JW5503 KanR)	MIC (E. coli JW5503 SmR)	MIC (E. coli JW5503 ApmR)	inhibition of protein synthesis in vitro (firefly luciferase) [1]	inhibitory effect on translation relative to apramycin (1) [1]	induction of translation errors (blue staining at edge of inhibition zone) [2]
CNC1C(OC2OC(CNCCNC(=N)N)C(N)C(O)C2O)OC2CC(N)C(OC3C(N)CC(N)C(O)C3O)OC2C1O (stereo not shown) [Compound 8a, 6″-((2-Guanidinoethyl-1)-amino)-6″-deoxyapramycin acetate]	8 µg/mL	0.5 µg/mL	1 µg/mL	0.125 µg/mL	8 µg/mL	16 µg/mL	> 256 µg/mL	inhibited protein synthesis in vitro	approximately one order of magnitude weaker	caused blue staining of the bacterial lawn
CNC1C(OC2OC(CNCCN)C(N)C(O)C2O)OC2CC(N)C(OC3C(N)CC(N)C(O)C3O)OC2C1O (stereo not shown) [Compound 5a, 6″-((2-Aminoethyl-1)-amino)-6″-deoxyapramycin acetate]	8 µg/mL	2 µg/mL	2 µg/mL	0.25 µg/mL	16 µg/mL	32 µg/mL	> 256 µg/mL	inhibited protein synthesis in vitro	approximately one order of magnitude weaker	caused blue staining of the bacterial lawn
CNC1C(OC2OC(CNCCCN)C(N)C(O)C2O)OC2CC(N)C(OC3C(N)CC(N)C(O)C3O)OC2C1O (stereo not shown) [Compound 5b, 6″-((3-Aminopropyl-1)-amino)-6″-deoxyapramycin acetate]	16 µg/mL	2 µg/mL	2 µg/mL	0.25 µg/mL	32 µg/mL	32 µg/mL	> 256 µg/mL	inhibited protein synthesis in vitro	approximately one order of magnitude weaker	caused blue staining of the bacterial lawn
CNC1C(OC2OC(CNCCCNC(=N)N)C(N)C(O)C2O)OC2CC(N)C(OC3C(N)CC(N)C(O)C3O)OC2C1O (stereo not shown) [Compound 8b, 6″-((3-Guanidinopropyl-1)-amino)-6″-deoxyapramycin acetate]	8 µg/mL	0.5 µg/mL	1 µg/mL	0.125 µg/mL	16 µg/mL	32 µg/mL	> 256 µg/mL	inhibited protein synthesis in vitro	approximately one order of magnitude weaker	caused blue staining of the bacterial lawn
